Laboratory results: patent US20220175811A1, “STABLE FORMULATIONS OF CYCLIC DINUCLEOTIDE STING AGONIST COMPOUNDS AND METHODS OF USE THEREOF” (Merck Sharp & Dohme Corp., priority 2019, published 2022)

Test: Forced stress screen (AIBN, peroxide, 0.1N NaOH)
Format: physicochemical
Procedure: 0.05 mg/mL stock solutions of Compound A were prepared by adding […] of Compound A to a 50 mL volumetric flask and diluted to volume with either 50/50 water/methanol (stock solution A), or 50/50 water/acetonitrile (stock solution B).
An azobisisobutyronitrile (AIBN) stress solution was prepared by dissolving 7.77 mg of AIBN in 10 mL of stock solution A in an amber volumetric flask and sonicating to dissolve. The AIBN control solution was prepared by dissolving 8.48 mg of AIBN in 10 mL of 50/50 methanol/water in an amber volumetric flask. Both solutions were placed in an oven at 40° C. for 24 hours.
A peroxide stress solution was prepared by adding 1.0 mL of 3% hydrogen peroxide to 9.0 mL of stock solution A in a volumetric flask. An aliquot of the solution was placed into an amber vial kept at room temperature, and another aliquot was stored at 5° C. for 24 hours. The peroxide control solution was prepared by adding 1.0 mL of 3% hydrogen peroxide to 9.0 mL 50/50 methanol/water in an amber volumetric flask. This solution was kept at room temperature for 24 hours.
A 0.1N NaOH stress solution was prepared by adding 1.0 mL of 1N sodium hydroxide to 9.0 mL of stock solution B in an amber volumetric flask. One sample was kept at room temperature, and the identical sample was placed in an oven at 60° C. for 24 hours. A 0.1N NaOH control solution was prepared by adding 1.0 mL of 1N sodium hydroxide to 9.0 mL of 50/50 acetonitrile/water in an amber volumetric flask.
No major degradation was observed under AIBN or 0.1N NaOH base stress. […] The percent of Compound A was calculated based on the area count of active peak in the control samples compared to stress samples.

For `Nc1nc2c(ncn2[C@@H]2O[C@@H]3CO[P@@](=O)(S)O[C@H]4[C@H](F)[C@H](n5cnc6c(N)ncnc65)O[C@@H]4CO[P@@](=O)(S)O[C@@H]2[C@@H]3F)c(=O)[nH]1` (single isomer, unassigned) [Compound A], the “Sensitive for Hydrolysis or Oxidation” value (0.1 N NaOH base stress, in 0.1 N NaOH after 24h/RT) was “No sensitivity; <5% drug loss”, the “Sensitive for Hydrolysis or Oxidation” value (AIBN stress) was “No sensitivity; <5% drug loss” and the “Sensitive for Hydrolysis or Oxidation” value (Peroxide stress at 5° C.) was “High sensitivity; >10% drug loss”. The “Sensitive for Hydrolysis or Oxidation” value (Peroxide stress at RT) was “High sensitivity; >10% drug loss” and the “Sensitivity to two-electron oxidative processes” value (forced stress) was “highly sensitive”.
